Values of other authors in US20180117047A1, “DRUG FOR PREVENTING AND/OR TREATING DEMENTIA” (NATIONAL UNIVERSITY CORPORATION TOTTORI UNIVERSITY, priority 2015, published 2018).
Read-outs that look alike come from different tables or passages of the source.

Tested on: F11 cell strain, fusion cells of rat primarily cultured nerve cells and mouse neuroblastomas, expressing N141I mutant of presenilin 2
Conditions: cited from earlier work

SMILES	Nerve cell death caused by addition of ecdysone (100 μM oxypurinol simultaneously with 100 μM acetyl-L-aspartyl-L-glutamyl-L-valyl-L-aspart-1-al (caspase inhibitor))	Nerve cell death caused by addition of ecdysone (100 μM oxypurinol simultaneously with 300 μM apocynin (NADPH oxidase inhibitor))	Nerve cell death caused by addition of ecdysone (100 nM xanthine oxidase inhibitor simultaneously with 100 μM acetyl-L-aspartyl-L-glutamyl-L-valyl-L-aspart-1-al (caspase inhibitor))
O=c1[nH]c(=O)c2c[nH]nc2[nH]1 [oxypurinol]	suppressed	suppressed	
COc1cc(-c2cnn3c(O)ncnc23)ccc1[S+]([O-])c1ccccc1.[Na] (single isomer, unassigned; (-)) [(−)-4-hydroxy-8-(3-methoxy-4-phenylsulfinylphenyl)pyrazolo[1,5-a]-1,3,5-triazine sodium salt]			suppressed
